Experimental data as given in ChEMBL document CHEMBL4028801, “A multifactorial approach to hepatobiliary transporter assessment enables improved therapeutic compound development” (Toxicol Sci, 2013).
Structures can show the parent of a compound that is named as a salt. Positions of bridges follow the written chain, without caps; N, C: chain ends. Non-standard residues stand in square brackets, D forms with d. Residues, ends and D or L forms follow the SMILES beside them. hArg = N=C(N)NCCCC[C@H](N)C(=O)O; Mpa = O=C(O)CCS

Experiments:
Bile salt export pump = Bile salt export pump (Homo sapiens, UniProt O95342); assay: Inhibition of human BSEP overexpressed in Sf9 cell membrane vesicles assessed as uptake of [3H]-taurocholate in presence of ATP measured after 15 to 20 mins by membrane vesicle transport assay; format: ADME, cell-based
[1] = target: ATP-binding cassette sub-family C member 2 (Homo sapiens, UniProt Q92887); assay: Inhibition of human MRP2 overexpressed in Sf9 cell membrane vesicles assessed as uptake of [3H]-estradiol-17beta-D-glucuronide in presence of ATP and GSH measured after 20 mins by membrane vesicle transport assay
[2] = target: ATP-binding cassette sub-family C member 3 (Homo sapiens, UniProt O15438); assay: Inhibition of human MRP3 overexpressed in Sf9 insect cell membrane vesicles assessed as uptake of [3H]-estradiol-17beta-D-glucuronide in presence of ATP and GSH measured after 10 mins by membrane vesicle transport assay; format: ADME, cell-based
[3] = target: T1, ATP-binding cassette sub-family C member 4 (Homo sapiens, UniProt O15439); assay: Inhibition of human MRP4 overexpressed in Sf9 cell membrane vesicles assessed as uptake of [3H]-estradiol-17beta-D-glucuronide in presence of ATP and GSH measured after 20 mins by membrane vesicle transport assay; format: ADME, cell-based
T1 sequence (O15439 whole entry): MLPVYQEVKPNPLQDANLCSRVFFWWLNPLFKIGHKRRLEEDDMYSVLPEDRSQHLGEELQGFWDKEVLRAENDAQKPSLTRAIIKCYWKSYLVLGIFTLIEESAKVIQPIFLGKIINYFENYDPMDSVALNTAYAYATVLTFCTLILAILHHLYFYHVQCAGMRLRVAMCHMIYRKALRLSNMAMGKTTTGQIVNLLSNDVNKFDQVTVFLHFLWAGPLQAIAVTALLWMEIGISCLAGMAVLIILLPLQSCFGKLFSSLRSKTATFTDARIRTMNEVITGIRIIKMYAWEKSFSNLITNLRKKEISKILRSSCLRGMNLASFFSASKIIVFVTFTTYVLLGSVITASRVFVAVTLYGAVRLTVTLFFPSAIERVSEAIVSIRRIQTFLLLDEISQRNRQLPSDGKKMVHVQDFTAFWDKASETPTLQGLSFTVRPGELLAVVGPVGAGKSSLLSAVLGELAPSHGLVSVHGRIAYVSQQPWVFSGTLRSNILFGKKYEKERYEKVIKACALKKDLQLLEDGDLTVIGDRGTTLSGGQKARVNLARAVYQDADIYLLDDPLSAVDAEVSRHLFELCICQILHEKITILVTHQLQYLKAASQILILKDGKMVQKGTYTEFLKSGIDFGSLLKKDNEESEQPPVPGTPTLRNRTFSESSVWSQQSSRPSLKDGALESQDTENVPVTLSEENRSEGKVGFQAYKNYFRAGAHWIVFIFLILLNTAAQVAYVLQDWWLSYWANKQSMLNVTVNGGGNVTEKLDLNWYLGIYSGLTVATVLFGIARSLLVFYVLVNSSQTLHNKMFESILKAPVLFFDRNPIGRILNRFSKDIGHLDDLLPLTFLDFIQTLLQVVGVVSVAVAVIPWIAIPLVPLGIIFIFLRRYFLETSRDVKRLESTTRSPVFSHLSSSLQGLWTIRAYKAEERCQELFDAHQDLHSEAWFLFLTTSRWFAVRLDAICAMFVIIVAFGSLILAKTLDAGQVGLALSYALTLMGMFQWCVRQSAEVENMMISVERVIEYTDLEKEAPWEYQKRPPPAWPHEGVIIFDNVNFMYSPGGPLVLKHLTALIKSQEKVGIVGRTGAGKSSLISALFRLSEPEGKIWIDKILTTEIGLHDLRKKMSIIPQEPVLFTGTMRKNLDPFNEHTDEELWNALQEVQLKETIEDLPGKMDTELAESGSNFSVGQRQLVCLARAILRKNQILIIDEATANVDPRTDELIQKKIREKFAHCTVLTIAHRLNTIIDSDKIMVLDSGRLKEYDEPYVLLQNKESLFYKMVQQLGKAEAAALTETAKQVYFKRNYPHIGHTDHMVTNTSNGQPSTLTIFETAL

Sequence of ATP-binding cassette sub-family C member 2 (Q92887 whole entry): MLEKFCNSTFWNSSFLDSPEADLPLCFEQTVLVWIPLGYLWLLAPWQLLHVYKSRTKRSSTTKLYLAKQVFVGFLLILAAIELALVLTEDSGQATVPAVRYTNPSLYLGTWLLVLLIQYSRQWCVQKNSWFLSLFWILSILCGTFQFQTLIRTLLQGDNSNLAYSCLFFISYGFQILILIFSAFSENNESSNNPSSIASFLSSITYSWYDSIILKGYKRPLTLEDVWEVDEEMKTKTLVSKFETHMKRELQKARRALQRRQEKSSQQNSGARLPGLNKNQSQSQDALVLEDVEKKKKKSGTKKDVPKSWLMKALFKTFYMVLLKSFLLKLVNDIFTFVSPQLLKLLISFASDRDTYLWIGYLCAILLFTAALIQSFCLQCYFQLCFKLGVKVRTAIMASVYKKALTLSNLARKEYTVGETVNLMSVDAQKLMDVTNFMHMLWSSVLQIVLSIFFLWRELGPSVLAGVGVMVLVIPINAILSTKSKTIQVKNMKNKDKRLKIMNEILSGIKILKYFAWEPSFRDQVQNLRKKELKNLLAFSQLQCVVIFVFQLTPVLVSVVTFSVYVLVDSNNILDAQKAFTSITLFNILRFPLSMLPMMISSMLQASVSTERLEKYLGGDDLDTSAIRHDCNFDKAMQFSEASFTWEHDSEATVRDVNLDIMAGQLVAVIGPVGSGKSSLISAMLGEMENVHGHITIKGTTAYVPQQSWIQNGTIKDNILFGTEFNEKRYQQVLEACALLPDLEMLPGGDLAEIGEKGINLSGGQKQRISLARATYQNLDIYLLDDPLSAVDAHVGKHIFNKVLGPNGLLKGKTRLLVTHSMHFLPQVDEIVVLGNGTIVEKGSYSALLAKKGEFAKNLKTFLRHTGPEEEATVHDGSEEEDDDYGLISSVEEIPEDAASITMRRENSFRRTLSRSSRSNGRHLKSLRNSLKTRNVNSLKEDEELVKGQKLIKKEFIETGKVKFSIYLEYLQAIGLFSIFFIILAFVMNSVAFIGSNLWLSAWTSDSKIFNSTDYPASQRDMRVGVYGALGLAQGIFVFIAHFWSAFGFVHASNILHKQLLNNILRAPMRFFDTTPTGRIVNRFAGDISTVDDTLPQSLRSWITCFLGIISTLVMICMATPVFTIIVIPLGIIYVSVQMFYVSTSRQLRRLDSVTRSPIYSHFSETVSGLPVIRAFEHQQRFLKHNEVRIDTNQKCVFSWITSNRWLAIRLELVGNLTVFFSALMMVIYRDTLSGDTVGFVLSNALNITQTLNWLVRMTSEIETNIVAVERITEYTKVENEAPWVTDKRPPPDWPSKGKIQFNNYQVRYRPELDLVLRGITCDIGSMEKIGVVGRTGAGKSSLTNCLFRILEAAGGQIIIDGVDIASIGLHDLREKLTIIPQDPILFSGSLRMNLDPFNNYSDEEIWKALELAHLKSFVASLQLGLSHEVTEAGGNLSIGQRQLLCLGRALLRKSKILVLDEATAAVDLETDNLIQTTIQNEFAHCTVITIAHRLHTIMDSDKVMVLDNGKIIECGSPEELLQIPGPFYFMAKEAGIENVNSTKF
Sequence of ATP-binding cassette sub-family C member 3 (O15438 whole entry): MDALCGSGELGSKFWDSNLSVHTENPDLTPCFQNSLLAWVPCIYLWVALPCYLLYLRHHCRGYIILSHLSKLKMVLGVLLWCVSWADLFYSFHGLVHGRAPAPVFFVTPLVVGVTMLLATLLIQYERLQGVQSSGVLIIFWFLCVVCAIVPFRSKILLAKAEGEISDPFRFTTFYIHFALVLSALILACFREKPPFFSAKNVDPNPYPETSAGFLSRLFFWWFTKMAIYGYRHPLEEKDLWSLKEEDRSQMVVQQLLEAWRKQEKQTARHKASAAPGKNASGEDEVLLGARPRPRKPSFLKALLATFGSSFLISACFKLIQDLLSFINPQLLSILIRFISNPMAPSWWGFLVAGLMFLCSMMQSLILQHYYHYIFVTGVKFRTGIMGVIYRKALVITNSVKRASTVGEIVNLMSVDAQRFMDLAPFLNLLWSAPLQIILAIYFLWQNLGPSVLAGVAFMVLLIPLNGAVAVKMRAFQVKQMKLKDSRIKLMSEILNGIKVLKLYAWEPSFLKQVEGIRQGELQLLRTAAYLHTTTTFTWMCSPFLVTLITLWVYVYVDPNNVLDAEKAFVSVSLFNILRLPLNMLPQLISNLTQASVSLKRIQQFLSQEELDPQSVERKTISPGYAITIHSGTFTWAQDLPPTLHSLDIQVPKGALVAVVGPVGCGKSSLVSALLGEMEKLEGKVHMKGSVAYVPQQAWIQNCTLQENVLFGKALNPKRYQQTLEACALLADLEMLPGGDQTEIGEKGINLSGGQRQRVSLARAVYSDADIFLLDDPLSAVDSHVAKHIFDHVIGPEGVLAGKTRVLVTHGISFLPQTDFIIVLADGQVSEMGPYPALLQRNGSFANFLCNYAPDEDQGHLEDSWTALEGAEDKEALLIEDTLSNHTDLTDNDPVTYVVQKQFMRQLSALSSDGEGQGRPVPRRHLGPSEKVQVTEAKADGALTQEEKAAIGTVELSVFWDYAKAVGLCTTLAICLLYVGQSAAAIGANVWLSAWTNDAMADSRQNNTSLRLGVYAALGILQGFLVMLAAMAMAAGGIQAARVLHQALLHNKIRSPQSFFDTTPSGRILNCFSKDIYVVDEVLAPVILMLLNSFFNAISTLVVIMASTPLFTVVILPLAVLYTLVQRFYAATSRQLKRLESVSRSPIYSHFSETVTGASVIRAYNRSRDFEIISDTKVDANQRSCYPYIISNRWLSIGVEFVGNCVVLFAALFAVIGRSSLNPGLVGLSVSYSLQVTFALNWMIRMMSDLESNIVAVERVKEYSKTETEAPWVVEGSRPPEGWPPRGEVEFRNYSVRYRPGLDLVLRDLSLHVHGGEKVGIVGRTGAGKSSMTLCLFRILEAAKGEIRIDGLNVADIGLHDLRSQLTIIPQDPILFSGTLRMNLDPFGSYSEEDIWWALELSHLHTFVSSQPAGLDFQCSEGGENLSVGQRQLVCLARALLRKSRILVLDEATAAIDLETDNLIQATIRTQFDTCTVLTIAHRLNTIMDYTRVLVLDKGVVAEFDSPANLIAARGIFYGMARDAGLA
Sequence of Bile salt export pump (O95342 whole entry): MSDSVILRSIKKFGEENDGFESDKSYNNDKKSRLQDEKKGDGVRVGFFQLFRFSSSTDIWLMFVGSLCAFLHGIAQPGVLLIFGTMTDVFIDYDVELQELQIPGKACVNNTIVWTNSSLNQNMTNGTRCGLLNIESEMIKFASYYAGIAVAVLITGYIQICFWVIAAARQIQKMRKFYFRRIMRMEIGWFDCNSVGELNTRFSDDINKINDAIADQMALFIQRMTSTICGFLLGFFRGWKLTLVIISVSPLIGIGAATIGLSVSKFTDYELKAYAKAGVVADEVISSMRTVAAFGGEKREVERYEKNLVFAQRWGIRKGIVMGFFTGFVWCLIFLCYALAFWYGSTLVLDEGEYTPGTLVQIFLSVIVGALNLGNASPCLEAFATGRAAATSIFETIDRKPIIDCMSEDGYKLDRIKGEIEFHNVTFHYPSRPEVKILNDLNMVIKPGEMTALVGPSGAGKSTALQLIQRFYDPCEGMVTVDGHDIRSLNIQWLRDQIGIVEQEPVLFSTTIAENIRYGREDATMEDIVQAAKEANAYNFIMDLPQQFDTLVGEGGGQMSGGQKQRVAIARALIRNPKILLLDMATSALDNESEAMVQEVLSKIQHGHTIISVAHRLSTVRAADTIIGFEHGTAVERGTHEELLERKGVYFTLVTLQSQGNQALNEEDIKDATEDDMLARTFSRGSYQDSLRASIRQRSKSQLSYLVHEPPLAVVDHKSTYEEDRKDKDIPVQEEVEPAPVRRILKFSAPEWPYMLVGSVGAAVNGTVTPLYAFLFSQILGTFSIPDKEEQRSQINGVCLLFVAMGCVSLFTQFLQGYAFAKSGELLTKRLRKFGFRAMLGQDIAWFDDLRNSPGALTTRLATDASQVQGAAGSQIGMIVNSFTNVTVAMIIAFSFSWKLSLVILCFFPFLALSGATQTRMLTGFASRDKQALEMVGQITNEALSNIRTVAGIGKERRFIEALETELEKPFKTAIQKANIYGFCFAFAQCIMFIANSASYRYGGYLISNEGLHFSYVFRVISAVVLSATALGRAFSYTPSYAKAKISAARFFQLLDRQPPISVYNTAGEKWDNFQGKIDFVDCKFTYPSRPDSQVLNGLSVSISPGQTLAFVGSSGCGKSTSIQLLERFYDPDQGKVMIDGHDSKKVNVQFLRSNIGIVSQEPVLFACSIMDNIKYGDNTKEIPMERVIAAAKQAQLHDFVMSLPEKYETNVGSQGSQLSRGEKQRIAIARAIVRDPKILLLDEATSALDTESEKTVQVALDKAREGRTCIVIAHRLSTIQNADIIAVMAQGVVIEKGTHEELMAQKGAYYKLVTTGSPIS

| SMILES | IC50 (Bile salt export pump) | IC50 [1] | IC50 [2] | IC50 [3] |
| --- | --- | --- | --- | --- |
| CN(C)CCC=C1c2ccccc2CCc2ccccc21 [AMITRIPTYLINE] | > 133 µM | > 133 µM | > 133 µM | > 133 µM |
| C[C@]12C/C(=C/O)C(=O)C[C@@H]1CC[C@@H]1[C@@H]2CC[C@@]2(C)[C@H]1CC[C@]2(C)O [OXYMETHOLONE] | 48.7 µM | > 133 µM | > 133 µM | > 133 µM |
| C=C1CC[C@@]2(O)[C@H]3Cc4ccc(O)c5c4[C@@]2(CCN3CC2CC2)[C@H]1O5 | > 133 µM | > 133 µM | > 133 µM | > 133 µM |
| OCC(CO)N[C@H]1C[C@](O)(CO)[C@@H](O)[C@H](O)[C@H]1O [VOGLIBOSE] | > 133 µM | > 133 µM | > 133 µM | > 133 µM |
| CC[C@H](C)C(=O)O[C@H]1C[C@H](O)C=C2C=C[C@H](C)[C@H](CC[C@@H](O)C[C@@H](O)CC(=O)O)[C@H]21 [PRAVASTATIN SODIUM] | > 133 µM | > 133 µM | 125 µM | > 133 µM |
| O=[N+]([O-])C(Br)(CO)CO [BRONOPOL] | > 133 µM | > 133 µM | > 133 µM | > 133 µM |
| OCCN1C[C@H](O)[C@@H](O)[C@H](O)[C@H]1CO [MIGLITOL] | > 133 µM | > 133 µM | > 133 µM | > 133 µM |
| Nc1ccc(S(=O)(=O)Nc2ncccn2)cc1 [SULFADIAZINE] | > 133 µM | > 133 µM | > 133 µM | > 133 µM |
| CCCN[C@H]1CCc2nc(N)sc2C1 [PRAMIPEXOLE] | > 133 µM | > 133 µM | > 133 µM | > 133 µM |
| CC(C)=CCC1C(=O)N(c2ccccc2)N(c2ccccc2)C1=O [FEPRAZONE] | 73.9 µM | > 133 µM | > 133 µM | > 133 µM |
| C[C@H]1C[C@@H]2[C@H]([C@@H](O)C[C@@]3(C)[C@H]2CC[C@]3(O)C(=O)CO)[C@@]2(C)C=CC(=O)C=C12 [METHYLPREDNISOLONE] | > 133 µM | > 133 µM | > 133 µM | 41 µM |
| CCCNCC(O)COc1ccccc1C(=O)CCc1ccccc1 (configuration not stated) [PROPAFENONE] | > 133 µM | > 133 µM | > 133 µM | > 133 µM |
| CC(C)C(=O)Oc1ccc(CO)cc1[C@H](CCN(C(C)C)C(C)C)c1ccccc1 [FESOTERODINE FUMARATE] | > 133 µM | > 133 µM | > 133 µM | > 133 µM |
| COc1cc([C@@H]2c3cc4c(cc3[C@@H](O[C@@H]3O[C@@H]5CO[C@@H](c6cccs6)O[C@H]5[C@H](O)[C@H]3O)[C@H]3COC(=O)[C@H]23)OCO4)cc(OC)c1O [TENIPOSIDE] | > 133 µM | > 133 µM | 20.6 µM | 34.9 µM |
| CC(C)N(CCC(C(N)=O)(c1ccccc1)c1ccccn1)C(C)C (configuration not stated) [DISOPYRAMIDE] | > 133 µM | > 133 µM | > 133 µM | > 133 µM |
| N=C(N)NCCCC[C@@H]1NC(=O)CCSSC[C@@H](C(N)=O)NC(=O)[C@@H]2CCCN2C(=O)[C@H](Cc2c[nH]c3ccccc23)NC(=O)[C@H](CC(=O)O)NC(=O)CNC1=O ([Mpa][hArg]GDWPC-NH2; disulfide 1-7) | > 133 µM | > 133 µM | > 133 µM | > 133 µM |
| NCCCC(N)(C(=O)O)C(F)F (configuration not stated) [EFLORNITHINE HYDROCHLORIDE] | > 133 µM | > 133 µM | > 133 µM | > 133 µM |
| CCN(CC)C(=O)c1cccnc1 [NIKETHAMIDE] | > 133 µM | > 133 µM | > 133 µM | > 133 µM |
| CCOc1ccc(NC(C)=O)cc1 [PHENACETIN] | > 133 µM | > 133 µM | > 133 µM | > 133 µM |

| SMILES | IC50 (Bile salt export pump) | IC50 [1] | IC50 [2] | IC50 [3] |
| --- | --- | --- | --- | --- |
| CNC1=Nc2ccc(Cl)cc2C(c2ccccc2)=[N+]([O-])C1 [CHLORDIAZEPOXIDE] | 44.1 µM | > 133 µM | > 133 µM | > 133 µM |
| CC(NC(C)(C)C)C(=O)c1cccc(Cl)c1 (configuration not stated) [BUPROPION HYDROCHLORIDE] | > 133 µM | > 133 µM | > 133 µM | > 133 µM |
| O=C1OC(OC(=O)c2cccnc2Nc2cccc(C(F)(F)F)c2)c2ccccc21 (configuration not stated) [TALNIFLUMATE] | > 133 µM | > 133 µM | > 133 µM | > 133 µM |
| OCCN1CCN(CCCN2c3ccccc3Sc3ccc(Cl)cc32)CC1 [PERPHENAZINE] | > 133 µM | > 133 µM | > 133 µM | > 133 µM |
| O=S(=O)(O)CCS [MESNA] | > 133 µM | > 133 µM | > 133 µM | > 133 µM |
| CC(C)(C)c1ccc(C(=O)CCCN2CCC(OC(c3ccccc3)c3ccccc3)CC2)cc1 [EBASTINE] | > 133 µM | > 133 µM | > 133 µM | > 133 µM |
| CC1(C)S[C@@H]2[C@H](NC(=O)[C@H](NC(=O)N3CCNC3=O)c3ccccc3)C(=O)N2[C@H]1C(=O)O [AZLOCILLIN SODIUM] | > 133 µM | > 133 µM | > 133 µM | > 133 µM |
| COc1ccc2[nH]cc(CCNC(C)=O)c2c1 [MELATONIN] | > 133 µM | > 133 µM | > 133 µM | > 133 µM |
| C[C@H]1CN(C[C@H](Cc2ccccc2)C(=O)NCC(=O)O)CC[C@@]1(C)c1cccc(O)c1 [ALVIMOPAN] | > 133 µM | > 133 µM | > 133 µM | > 133 µM |
| COc1ccc(-c2ccc3cc(C(=O)O)ccc3c2)cc1C12CC3CC(CC(C3)C1)C2 | > 133 µM | > 133 µM | > 133 µM | > 133 µM |
| O=C(O[C@@H]1C[C@@H]2C[C@H]3C[C@H](C1)N2CC3=O)c1c[nH]c2ccccc12 | > 133 µM | > 133 µM | > 133 µM | > 133 µM |
| CC(=O)CC(c1ccccc1)c1c(O)c2ccccc2oc1=O (configuration not stated) [WARFARIN SODIUM] | > 133 µM | > 133 µM | > 133 µM | > 133 µM |
| CC(=O)OCC(=O)[C@@]1(O)[C@H](OC(C)=O)C[C@H]2[C@@H]3CCC4=CC(=O)C=C[C@]4(C)[C@@]3(F)[C@@H](O)C[C@@]21C [TRIAMCINOLONE DIACETATE] | > 133 µM | > 133 µM | > 133 µM | > 133 µM |
| COc1ccc2cc([C@H](C)C(=O)O)ccc2c1 [NAPROXEN] | > 133 µM | > 133 µM | > 133 µM | > 133 µM |
| C[C@H]1COc2c(C3(N)CC3)c(F)cc3c(=O)c(C(=O)O)cn1c23 [PAZUFLOXACIN] | > 133 µM | > 133 µM | > 133 µM | > 133 µM |
| CCCCNC(=O)NS(=O)(=O)c1ccc(C)cc1 [TOLBUTAMIDE] | > 133 µM | > 133 µM | > 133 µM | > 133 µM |
| CC(=O)Oc1ccccc1C(=O)O [ASPIRIN] | > 133 µM | > 133 µM | > 133 µM | > 133 µM |
| Fc1ccc([C@@H]2CCNC[C@H]2COc2ccc3c(c2)OCO3)cc1 [PAROXETINE HYDROCHLORIDE] | > 133 µM | > 133 µM | > 133 µM | > 133 µM |
| C[C@@H](O)[C@H]1C(=O)N2C(C(=O)O)=C(S[C@@H]3CN[C@H](C(=O)N(C)C)C3)[C@H](C)[C@H]12 [MEROPENEM] | > 133 µM | > 133 µM | > 133 µM | > 133 µM |
